In ChEMBL document CHEMBL1133572, “Protease inhibitors: current status and future prospects” (J Med Chem, 2000):
Residues, ends and D or L forms follow the SMILES beside them. *: point of attachment. Cbz = O=C(OCc1ccccc1)*; CF3 = FC(F)(F)*; Moc = COC(=O)*

Experiments:
[1] = molecular target: T1, Human rhinovirus A protease (Human rhinovirus sp.) (UniProt Q4U254); assay: The toxic concentration against Protease 3C
T1 sequence (whole entry): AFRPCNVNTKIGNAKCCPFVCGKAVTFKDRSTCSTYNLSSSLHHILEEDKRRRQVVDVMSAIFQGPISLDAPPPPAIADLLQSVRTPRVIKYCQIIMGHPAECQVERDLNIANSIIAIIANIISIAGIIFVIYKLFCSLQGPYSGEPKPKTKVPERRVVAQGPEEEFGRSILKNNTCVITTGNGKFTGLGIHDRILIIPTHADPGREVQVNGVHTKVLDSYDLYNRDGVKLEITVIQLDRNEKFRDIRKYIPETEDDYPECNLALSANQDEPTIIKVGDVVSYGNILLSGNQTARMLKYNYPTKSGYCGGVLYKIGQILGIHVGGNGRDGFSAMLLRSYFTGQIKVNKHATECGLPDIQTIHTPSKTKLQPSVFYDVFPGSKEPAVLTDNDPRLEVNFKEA

[2] = molecular target: T2, Human rhinovirus A protease (Human rhinovirus sp., UniProt Q4U254)
T2 sequence (Q4U254 whole entry): T1 sequence (whole entry)

[3] = molecular target: T2, Human rhinovirus A protease; remark: listed apart in the source
[4] = Oral bioavailability against cynomolgus monkeys at the dose of 3 mg/kg.; assay type: ADME, organism-based, Macaca fascicularis; settings: cynomolgus monkey, in vivo
Renin [5] = molecular target: T3, Renin (Homo sapiens, UniProt P00797); assay: Inhibitory concentration against human plasma renin at pH 6.; assay type: cell-free
T3 sequence (P00797 whole entry): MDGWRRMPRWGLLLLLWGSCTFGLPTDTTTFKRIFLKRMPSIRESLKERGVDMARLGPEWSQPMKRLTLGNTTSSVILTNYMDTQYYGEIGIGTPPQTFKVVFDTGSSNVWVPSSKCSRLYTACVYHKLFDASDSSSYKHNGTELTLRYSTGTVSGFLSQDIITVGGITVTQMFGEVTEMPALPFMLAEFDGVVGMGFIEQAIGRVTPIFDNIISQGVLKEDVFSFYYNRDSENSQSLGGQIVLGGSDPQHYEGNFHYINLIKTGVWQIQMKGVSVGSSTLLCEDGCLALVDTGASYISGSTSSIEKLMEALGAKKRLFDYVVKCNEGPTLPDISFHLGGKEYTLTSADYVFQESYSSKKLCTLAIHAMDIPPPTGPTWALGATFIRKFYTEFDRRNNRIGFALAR

Cathepsin D [6] = molecular target: T4, Cathepsin D (Homo sapiens, UniProt P07339); assay: Inhibitory concentration against cathepsin D..
T4 sequence (P07339 65-162 limits assumed): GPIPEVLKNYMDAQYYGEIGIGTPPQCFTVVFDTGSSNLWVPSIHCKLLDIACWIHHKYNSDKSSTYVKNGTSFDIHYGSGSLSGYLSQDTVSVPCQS
T4 sequence (P07339 169-412 limits assumed): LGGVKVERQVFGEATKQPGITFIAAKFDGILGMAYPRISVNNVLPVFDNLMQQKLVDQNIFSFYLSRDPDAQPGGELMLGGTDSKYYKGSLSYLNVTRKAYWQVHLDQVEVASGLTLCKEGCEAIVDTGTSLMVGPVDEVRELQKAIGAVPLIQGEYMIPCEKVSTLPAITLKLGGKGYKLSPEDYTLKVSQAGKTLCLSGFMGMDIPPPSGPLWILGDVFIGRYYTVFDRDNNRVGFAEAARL

Caspase-1 = molecular target: T5, Caspase-1 (Homo sapiens, UniProt P29466); assay: The binding affinity against IL-1 beta converting enzyme
T5 sequence (P29466 whole entry): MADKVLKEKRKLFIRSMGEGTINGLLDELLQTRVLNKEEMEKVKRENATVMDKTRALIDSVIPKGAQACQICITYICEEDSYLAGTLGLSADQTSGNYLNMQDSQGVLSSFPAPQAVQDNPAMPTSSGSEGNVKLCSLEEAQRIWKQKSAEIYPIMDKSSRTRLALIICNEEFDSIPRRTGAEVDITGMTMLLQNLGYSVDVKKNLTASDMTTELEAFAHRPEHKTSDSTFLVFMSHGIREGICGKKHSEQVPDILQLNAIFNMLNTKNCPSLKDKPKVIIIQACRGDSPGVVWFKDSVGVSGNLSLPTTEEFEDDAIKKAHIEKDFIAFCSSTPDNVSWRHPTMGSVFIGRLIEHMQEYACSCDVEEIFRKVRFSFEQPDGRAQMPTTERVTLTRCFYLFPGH

[7] = oral bioavailability in standard iv / po dogs; assay type: ADME, organism-based, Canis lupus familiaris; settings: dog, in vivo, read-out: Bioavailabiility
[8] = molecular target: T6, Disintegrin and metalloproteinase domain-containing protein 17 (Homo sapiens, UniProt P78536); assay: Inhibitory activity against Tumor necrosis factor alpha-converting enzyme (TACE) with respect to matrix metalloprotease-1 (MMP-1).
T6 sequence (P78536 whole entry, the tested form may be a part): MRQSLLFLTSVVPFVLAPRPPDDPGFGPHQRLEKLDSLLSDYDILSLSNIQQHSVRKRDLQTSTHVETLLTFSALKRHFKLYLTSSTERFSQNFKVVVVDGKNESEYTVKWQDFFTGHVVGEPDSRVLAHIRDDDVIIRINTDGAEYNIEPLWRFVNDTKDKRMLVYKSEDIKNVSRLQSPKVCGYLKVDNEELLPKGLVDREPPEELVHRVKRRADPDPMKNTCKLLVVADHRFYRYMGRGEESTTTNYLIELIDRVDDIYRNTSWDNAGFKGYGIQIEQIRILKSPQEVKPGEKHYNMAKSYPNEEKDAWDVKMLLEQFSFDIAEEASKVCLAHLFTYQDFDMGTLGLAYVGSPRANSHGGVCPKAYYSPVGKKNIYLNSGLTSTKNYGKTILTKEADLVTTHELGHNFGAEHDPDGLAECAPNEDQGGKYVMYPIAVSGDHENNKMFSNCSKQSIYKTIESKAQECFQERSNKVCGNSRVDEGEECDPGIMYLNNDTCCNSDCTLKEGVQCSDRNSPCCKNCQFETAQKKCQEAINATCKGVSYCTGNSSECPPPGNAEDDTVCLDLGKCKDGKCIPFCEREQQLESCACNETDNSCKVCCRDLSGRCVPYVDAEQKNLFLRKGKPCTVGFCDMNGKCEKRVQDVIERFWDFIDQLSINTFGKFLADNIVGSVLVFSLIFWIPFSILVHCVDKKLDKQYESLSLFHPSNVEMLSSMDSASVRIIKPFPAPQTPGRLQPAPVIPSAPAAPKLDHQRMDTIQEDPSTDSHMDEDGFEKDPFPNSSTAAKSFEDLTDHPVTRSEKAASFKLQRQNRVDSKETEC

[9] = molecular target: T6, Disintegrin and metalloproteinase domain-containing protein 17; assay: Inhibition against Tumor necrosis factor alpha-converting enzyme (TACE) at 1 uM in human monocytes.; assay type: cell-based
Neutrophil elastase = Neutrophil elastase (Homo sapiens, UniProt P08246)
Neutrophil elastase, sequence (P08246 whole entry): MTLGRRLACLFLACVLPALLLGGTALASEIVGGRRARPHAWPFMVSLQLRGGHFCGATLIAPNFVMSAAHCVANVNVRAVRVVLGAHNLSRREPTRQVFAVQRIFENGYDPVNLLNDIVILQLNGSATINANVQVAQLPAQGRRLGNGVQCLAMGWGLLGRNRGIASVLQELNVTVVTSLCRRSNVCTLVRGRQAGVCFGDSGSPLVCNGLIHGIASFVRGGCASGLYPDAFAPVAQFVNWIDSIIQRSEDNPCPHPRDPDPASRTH

[10] = test system: Human immunodeficiency virus 1; assay: Inhibitory activity against indinavir-resistant resistant strain of HIV-1.; assay type: functional, organism-based
[11] = test system: Human immunodeficiency virus 1; assay: Inhibitory activity against saquinavir-resistant resistant strain of HIV-1.; assay type: functional, organism-based
[12] = Orally bioavailability in rats; assay type: ADME, organism-based; settings: rat, in vivo, po; read-out: Bioavailabiility
[13] = Oral bioavailability in human; assay type: ADME, organism-based; settings: in vivo
Renin [14] = molecular target: T3, Renin
[15] = molecular target: T1, Human rhinovirus A protease (Human rhinovirus sp.)
[16] = Binding affinity against plasmepsin; design: species or system Plasmodium falciparum
[17] = Partition coefficient (logP); assay type: physicochemical; settings: octanol/water; read-out: logP
[18] = Cmax value in the period of […] hr after dosing.; assay type: ADME, organism-based; settings: in vivo
MT4 = assay: cells; settings: Homo sapiens
[19] = Cmax value in the period of […] hr after dosing, when administered with ritonavir.; assay type: ADME, organism-based; settings: in vivo
Cathepsin B = Cathepsin B (Homo sapiens, UniProt P07858); settings: read-out: Ki app
Cathepsin S = Cathepsin S (Homo sapiens, UniProt P25774); assay: The apparent binding affinity against cathepsin S.; settings: read-out: Ki app
Cathepsin S, sequence (P25774 whole entry): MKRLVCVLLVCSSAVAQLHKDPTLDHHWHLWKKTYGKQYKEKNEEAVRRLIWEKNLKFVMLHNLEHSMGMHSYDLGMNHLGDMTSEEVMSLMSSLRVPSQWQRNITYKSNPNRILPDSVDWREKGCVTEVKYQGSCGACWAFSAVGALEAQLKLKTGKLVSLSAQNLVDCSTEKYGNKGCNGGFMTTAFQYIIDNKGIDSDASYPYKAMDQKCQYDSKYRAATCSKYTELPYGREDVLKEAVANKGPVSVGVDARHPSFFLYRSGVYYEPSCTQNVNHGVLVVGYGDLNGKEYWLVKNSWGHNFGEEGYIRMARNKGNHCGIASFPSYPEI

Procathepsin L = Procathepsin L (Homo sapiens, UniProt P07711)
Procathepsin L, sequence (P07711 whole entry): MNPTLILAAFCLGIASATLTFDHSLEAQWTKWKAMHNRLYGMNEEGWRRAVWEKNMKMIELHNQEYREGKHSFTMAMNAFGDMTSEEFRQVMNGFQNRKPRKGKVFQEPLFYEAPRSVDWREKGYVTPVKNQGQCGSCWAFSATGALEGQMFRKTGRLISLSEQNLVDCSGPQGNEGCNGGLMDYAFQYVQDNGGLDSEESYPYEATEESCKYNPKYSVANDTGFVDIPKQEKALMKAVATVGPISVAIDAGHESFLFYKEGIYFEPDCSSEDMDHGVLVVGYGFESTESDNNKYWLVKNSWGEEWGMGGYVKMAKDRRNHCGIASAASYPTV

[20] = oral bioavailability in Hamsters; assay type: ADME, organism-based; settings: cricetinae, in vivo, read-out: Bioavailabiility
[21] = The in vivo activity ED50 (iv); assay type: functional
[22] = The in vivo activity ED50 (oral); assay type: functional
Cathepsin D [23] = molecular target: T4, Cathepsin D
Plasmepsin II = Plasmepsin II (Plasmodium falciparum, UniProt P46925); assay: Inhibitory concentration for Plasmodium falciparum plasmepsin-2.
Plasmepsin II, sequence (P46925 whole entry): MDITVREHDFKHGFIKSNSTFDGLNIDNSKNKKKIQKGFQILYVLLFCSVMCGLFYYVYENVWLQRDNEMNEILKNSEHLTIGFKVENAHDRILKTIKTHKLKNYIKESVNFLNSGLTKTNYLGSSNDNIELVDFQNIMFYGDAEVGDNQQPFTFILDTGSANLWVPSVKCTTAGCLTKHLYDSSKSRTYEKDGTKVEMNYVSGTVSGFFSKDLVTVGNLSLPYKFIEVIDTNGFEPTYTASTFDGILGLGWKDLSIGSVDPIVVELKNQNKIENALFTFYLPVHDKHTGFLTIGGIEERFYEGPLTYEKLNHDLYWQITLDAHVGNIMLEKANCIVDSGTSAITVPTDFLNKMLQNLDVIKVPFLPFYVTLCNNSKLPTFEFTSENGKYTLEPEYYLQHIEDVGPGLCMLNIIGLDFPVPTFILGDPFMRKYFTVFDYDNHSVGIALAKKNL

CC(C)C[C@H](NC(=O)OCc1ccccc1)C(=O)N[C@@H](Cc1ccccc1)C(=O)N[C@H](C=O)CC(=O)N(C)C (Cbz-Leu-Phe-Asp(NMe2)-aldehyde)
TC50 [1]: 63000 nM
EC50 [2]: 1300 nM
Ki [3]: 5 nM

CC(C)C[C@H](O)[C@H](O)[C@H](CC1CCCCC1)NC(=O)[C@@H](CC(=O)N(CC(=O)N(C)CCc1ccccn1)CC1CCCCC1)Cc1csc(N)n1
bioavailability [4]: 40%
IC50 (Renin [5]): 1.4 nM
IC50 (Cathepsin D [6]): 550 nM

O=C[C@H](CC(=O)O)NC(=O)[C@@H]1CCCN2C(=O)CCC(NC(=O)c3ccccc3)C(=O)N12 (stereo partly specified)
Ki (Caspase-1): 5 nM
bioavailability [7]: 17%

C#CCSC[C@H](C(=O)NO)[C@@H](CC(C)C)C(=O)N[C@@H](Cc1ccccc1)C(=O)NC
IC50 [8]: > 10000 nM
inhibition [9]: 83%

CC(SC(=O)c1cccs1)C(=O)NC1CCSC1 (stereo unspecified)
Ki (Neutrophil elastase): 1380 nM

COC(=O)N[C@H](C(=O)N[C@@H](Cc1ccccc1)[C@@H](O)CN(Cc1ccc(-c2ccccn2)cc1)NC(=O)[C@@H](NC(=O)OC)C(C)(C)C)C(C)(C)C [ATAZANAVIR]
IC50 [10]: 100 nM
IC50 [11]: 100 nM
bioavailability [12]: 20%

CC(C)(C)S(=O)(=O)C[C@@H](Cc1ccccc1)C(=O)N[C@@H](Cc1cnc[nH]1)C(=O)N[C@@H](CC1CCCCC1)[C@@H](O)[C@@H](O)C1CC1
bioavailability [13]: 0.2%
Ki (Renin [14]): 0.7 nM

CC(C)C[C@H](NC(=O)OCc1ccccc1)C(=O)N[C@@H](Cc1ccccc1)C(=O)N[C@H](C=O)CCC(N)=O (Cbz-Leu-Phe-Gln-aldehyde)
EC50 [2]: 66000 nM
TC50 [15]: 398000 nM

COc1ccc(CCN(C[C@H](O)[C@H](Cc2ccccc2)NC(=O)COc2cccc(Cl)c2)C(=O)C2CCNCC2)cc1
Ki [16]: 4.3 nM
logP [17]: 3.71

Cc1cccc(C)c1OCC(=O)N[C@@H](Cc1ccccc1)[C@@H](O)C[C@H](Cc1ccccc1)NC(=O)[C@H](C(C)C)N1CCCNC1=O [LOPINAVIR]
Cmax at 8 h [18]: < 100 ng/mL
EC50 (MT4): 100 nM
Cmax at 8 h [19]: 5500 ng/mL

CC(C)C[C@H](NC(=O)OCc1ccccc1)C(=O)NNC(=O)c1csc([C@H](CC(C)C)NC(=O)OCc2ccccc2)n1
Ki (Cathepsin B): 5200 nM
Ki (Cathepsin S): > 1000 nM
Ki (Procathepsin L): 700 nM

COC(=O)N[C@H](C(=O)N1CCC[C@H]1C(=O)N[C@H](C(=O)C(F)(F)F)C(C)C)C(C)C (Moc-Val-Pro-Val-CF3)
bioavailability [20]: 75%
ED50 [21]: 0.51 mg/kg
ED50 [22]: 2 mg/kg

CCCCNC(=O)C[C@H](O)[C@H](CC(C)C)NC(=O)[C@@H](NC(=O)Cc1ccc2ccccc2c1)C(C)CC (stereo partly specified)
IC50 (Cathepsin D [23]): 320 nM
IC50 (Plasmepsin II): 50 nM
